Here are results for 3 molecules from patent publication US20240270809A1, “ORAL GLP RECEPTOR AGONISTS” (priority 2020, published 2024).

Usually Emax stands for the maximal effect, on the per cent scale that the assay sets. One may read the share remaining as the share of the starting amount still present when the sample was taken.

Series [1] has as its target T1, human GLP2 receptor (Homo sapiens, UniProt O95838).
T1 construct: expressed in transfected cells; host or cells: HEK cells, BacMam virus transduction
T1 sequence (O95838 1-553): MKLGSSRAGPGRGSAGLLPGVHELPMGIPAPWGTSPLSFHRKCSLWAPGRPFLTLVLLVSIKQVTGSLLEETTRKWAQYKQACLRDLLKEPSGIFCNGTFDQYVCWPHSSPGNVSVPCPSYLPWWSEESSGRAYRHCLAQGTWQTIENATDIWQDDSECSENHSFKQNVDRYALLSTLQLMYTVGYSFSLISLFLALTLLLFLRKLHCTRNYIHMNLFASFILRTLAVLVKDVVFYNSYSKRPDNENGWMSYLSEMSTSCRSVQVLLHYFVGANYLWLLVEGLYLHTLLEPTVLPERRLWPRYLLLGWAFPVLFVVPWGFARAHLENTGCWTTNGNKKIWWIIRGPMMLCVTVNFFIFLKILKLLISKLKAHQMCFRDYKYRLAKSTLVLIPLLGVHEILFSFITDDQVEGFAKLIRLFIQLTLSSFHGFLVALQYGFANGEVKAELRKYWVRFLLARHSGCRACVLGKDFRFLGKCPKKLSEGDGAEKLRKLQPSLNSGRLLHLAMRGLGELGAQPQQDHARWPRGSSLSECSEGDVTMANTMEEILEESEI
In words: cAMP accumulation assay, functional agonism of human GLP2 receptor. Format: cell-based. The conditions noted are these: HEK cells infected with human GLP2 receptor BacMam virus, HTRF cAMP; for Emax: HEK293, read-out: Human GLP-2R agonist cAMP Emax; for EC50: read-out: Human GLP-2R agonist cAMP pEC50 (converted). Summed up: (§1)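 cAMP read by HTRF detection reagents in lysis buffer following 45 min agonist exposure at 37 °C. Cells: frozen HEK transduced for 24 h with GLP1 or GLP2 receptor BacMam, suspended in HBSS plus 0.5 mM IBMX.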
On the technique in general: cAMP levels reflect the balance of adenylyl cyclase and phosphodiesterase activity.

In series [2] the target is T2, human GLP1 receptor (Homo sapiens, UniProt P43220).
T2 construct: expressed in transfected cells; host or cells: HEK cells, BacMam virus transduction
The series can be described thus: cAMP accumulation assay, functional agonism of human GLP1 receptor. Type of series: cell-based. The conditions noted are these: HEK cells infected with human GLP1 receptor BacMam virus, HTRF cAMP; for Emax: HEK293, read-out: Human GLP-1R agonist cAMP Emax; for EC50: read-out: Human GLP-1R agonist cAMP pEC50 (converted). Summed up:
as §1

For series [3], the target named is T3, mouse GLP2 receptor (Mus musculus, UniProt Q5IXF8).
T3 construct: expressed in transfected cells; host or cells: HEK cells, transient transfection with GeneJuice
T3 sequence (Q5IXF8 1-512): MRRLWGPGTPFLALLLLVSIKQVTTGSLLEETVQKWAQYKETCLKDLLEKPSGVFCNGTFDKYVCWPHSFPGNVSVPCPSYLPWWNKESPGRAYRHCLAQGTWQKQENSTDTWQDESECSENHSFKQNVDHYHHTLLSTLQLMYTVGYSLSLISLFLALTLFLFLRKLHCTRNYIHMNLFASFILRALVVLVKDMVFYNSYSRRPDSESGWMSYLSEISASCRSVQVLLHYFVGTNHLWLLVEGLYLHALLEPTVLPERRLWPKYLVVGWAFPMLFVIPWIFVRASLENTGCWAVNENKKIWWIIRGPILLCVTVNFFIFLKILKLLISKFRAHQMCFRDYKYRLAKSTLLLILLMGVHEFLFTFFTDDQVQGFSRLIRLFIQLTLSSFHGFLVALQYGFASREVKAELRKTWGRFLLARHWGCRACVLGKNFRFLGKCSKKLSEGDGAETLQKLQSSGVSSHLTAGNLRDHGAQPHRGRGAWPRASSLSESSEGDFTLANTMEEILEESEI
In words: cAMP accumulation assay, functional agonism of mouse GLP2 receptor. Format: cell-based. As to conditions: HEK cells transiently transfected with mouse GLP2 receptor, HTRF cAMP; for Emax: HEK293, read-out: Mouse GLP-2R agonist cAMP Emax; for EC50: read-out: Mouse GLP-2R agonist cAMP pEC50 (converted). The procedure, abridged: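 pEC50 values come from four-parameter fits of HTRF cAMP signal, read after lysis and 1 h RT incubation. Compounds were incubated 45 min at 37 °C with previously frozen, transiently transfected HEK cells (8000/well) in HBSS containing 0.5 mM IBMX.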

In series [4] the target is T4, mouse GLP1 receptor (Mus musculus, UniProt O35659).
T4 construct: expressed in transfected cells; host or cells: HEK cells, transient transfection with GeneJuice
T4 sequence (O35659 22-463): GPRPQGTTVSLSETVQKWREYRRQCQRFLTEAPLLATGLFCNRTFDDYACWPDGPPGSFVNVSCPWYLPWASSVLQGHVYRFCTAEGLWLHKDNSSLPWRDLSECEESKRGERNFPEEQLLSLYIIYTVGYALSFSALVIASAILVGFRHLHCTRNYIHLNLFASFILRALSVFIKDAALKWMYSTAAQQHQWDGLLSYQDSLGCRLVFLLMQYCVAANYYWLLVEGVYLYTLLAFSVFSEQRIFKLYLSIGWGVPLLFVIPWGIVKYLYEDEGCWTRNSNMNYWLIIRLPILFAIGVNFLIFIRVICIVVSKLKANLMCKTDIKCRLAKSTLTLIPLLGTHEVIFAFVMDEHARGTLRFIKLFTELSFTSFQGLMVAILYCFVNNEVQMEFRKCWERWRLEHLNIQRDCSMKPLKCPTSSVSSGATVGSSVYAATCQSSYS
In words: cAMP accumulation assay, functional agonism of mouse GLP1 receptor. The conditions noted are these: HEK cells transiently transfected with mouse GLP1 receptor, HTRF cAMP. Format: cell-based.

Series [5] in a line: Stability of peptides in Fasted-State Simulated Intestinal Fluid (FaSSIF). As to conditions: FaSSIF with 10 mg/ml pancreatin; t=30 mins, 37° C., pH 6.5, 10 mg/ml pancreatin. Type of series: in vitro ADME.
The nature of series [6]: Stability of peptides in Fasted-State Simulated Gastric Fluid (FaSSGF). As to conditions: FaSSGF with 0.1 mg/ml pepsin; t=30 mins, 37° C., pH 1.6, 0.1 mg/ml pepsin. Type of series: in vitro ADME.
Experimental: Stability of peptides was tested in Fasted-State Simulated gastric Fluid (FaSSGF) prepared according to manufacturer's protocol (Biorelevant, art. no. FFF01). […] FaSSGF was pre-incubated for 15 min at 37° C. and spiked with test and reference item working solutions. Experiments were conducted in duplicate in a non-serial manner. The total incubation volume per replicate was 150 μl. […] All samples and calibration standards (prepared in FaSSGF) were precipitated by addition of 300 μl precipitant (ACN / 2% acetic acid / 0.2% HFBA, (precipitation regent, PR)) containing internal standards (ISTD) to 150 μl sample. After incubation for 1 h at room temperature all samples were centrifuged for 10 min at 2,200×g (room temperature).
Series [7] can be described thus: Stability of peptides in rat intestinal fluid (ratIF). As to conditions: Sprague Dawley, undiluted rat small intestinal fluid (ratIF).

Positions of bridges follow the written chain, without caps; N, C: chain ends. Non-standard residues stand in square brackets, D forms with d. Residues, ends and D or L forms follow the SMILES beside them. *: point of attachment. Malonyl(2,2-Me2,histaminyl) = CC(C)(C(=O)NCCc1cnc[nH]1)C(=O)*; Ala(1H-tetrazol-5-yl) = N[C@@H](Cc1nnn[nH]1)C(=O)O; Nle = CCCC[C@H](N)C(=O)O

T2 sequence (P43220 24-463): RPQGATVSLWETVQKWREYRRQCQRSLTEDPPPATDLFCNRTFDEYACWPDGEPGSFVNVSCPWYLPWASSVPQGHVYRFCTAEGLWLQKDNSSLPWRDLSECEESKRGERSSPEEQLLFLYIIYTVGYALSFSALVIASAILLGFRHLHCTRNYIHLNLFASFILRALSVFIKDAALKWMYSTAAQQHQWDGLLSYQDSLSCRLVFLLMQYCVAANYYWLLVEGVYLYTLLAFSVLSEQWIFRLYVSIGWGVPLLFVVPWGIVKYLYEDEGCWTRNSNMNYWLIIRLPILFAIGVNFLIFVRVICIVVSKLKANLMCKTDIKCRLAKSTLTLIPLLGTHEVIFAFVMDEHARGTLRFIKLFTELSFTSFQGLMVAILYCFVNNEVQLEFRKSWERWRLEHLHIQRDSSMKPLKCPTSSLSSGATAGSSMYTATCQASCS

On to `CCCC[C@@H]1NC(=O)[C@H](CCC(=O)O)NC(=O)[C@@H](NC(=O)[C@H](CO)NC(=O)[C@H](Cc2ccccc2)NC(=O)[C@H](CO)NC(=O)CNC(=O)[C@H](Cc2nn[nH]n2)NC(=O)C(C)(C)C(=O)NCCc2c[nH]cn2)CCCCNC(=O)C[C@@H](C(=O)N[C@H](C(=O)N[C@@H](CC(C)C)C(=O)N[C@@H](CC(=O)O)C(=O)N[C@H]2CCC(=O)NCCCC[C@@H](C(=O)N[C@@H](CC(=O)O)C(=O)N[C@@H](Cc3ccccc3)C(=O)N[C@H](C(=O)N[C@@H](CC(N)=O)C(=O)N[C@@H](Cc3c[nH]c4ccccc34)C(=O)N[C@@H](CC(C)C)C(=O)N[C@H](C(=O)N[C@@H](CCC(N)=O)C(=O)N[C@H](C(=O)N[C@H]3CCC(=O)NCCCC[C@@H](C(N)=O)NC(=O)[C@H]([C@@H](C)O)NC(=O)[C@H]([C@@H](C)CC)NC3=O)[C@@H](C)O)[C@@H](C)CC)[C@@H](C)CC)NC(=O)[C@H](C)NC(=O)[C@H](C)NC(=O)[C@H](CCCCN)NC2=O)[C@@H](C)CC)NC(=O)[C@@H](Cc2ccccc2)NC1=O` [Example 2] ({Malonyl(2,2-Me2,histaminyl)}-[Ala(1H-tetrazol-5-yl)]GSFSKE[Nle][dF]DILDEKAAKDFINWLIQTEITK-NH2; lactam 6-10, 14-18, 28-31 (inferred); C-terminus assumed), for which the maximal response (Emax) came out at 103% in series [1]; 92.5% in series [2]; 91.6% in series [3]; 94.3% in series [4] (HEK293, read-out: Mouse GLP-1R agonist cAMP Emax). Moreover, the EC50 in series [1] was 0.0316 nM; in series [2], 0.398 nM; in series [3] it was 1 nM; in series [4] (read-out: Mouse GLP-1R agonist cAMP pEC50 (converted)) it was 0.0398 nM. Also, the amount remaining at 0.5 h is 11% in series [5], 34% in series [6] and 22.5% in series [7].

Take `CCCC[C@@H]1NC(=O)[C@H](CCC(=O)O)NC(=O)[C@@H](NC(=O)[C@H](CO)NC(=O)[C@H](Cc2ccccc2)NC(=O)[C@H](CO)NC(=O)[C@@H](C)NC(=O)[C@H](Cc2nn[nH]n2)NC(=O)C(C)(C)C(=O)NCCc2c[nH]cn2)CCCCNC(=O)C[C@@H](C(=O)N[C@H](C(=O)N[C@@H](CC(C)C)C(=O)N[C@@H](CC(=O)O)C(=O)N[C@H]2CCC(=O)NCCCC[C@@H](C(=O)N[C@@H](CC(=O)O)C(=O)N[C@@H](Cc3ccccc3)C(=O)N[C@H](C(=O)N[C@H]3CCCCNC(=O)C[C@@H](C(=O)N[C@H]4CCC(=O)NCCCC[C@@H](C(N)=O)NC(=O)[C@H]([C@@H](C)O)NC(=O)[C@H]([C@@H](C)CC)NC(=O)[C@H](CCCCN)NC4=O)NC(=O)[C@H]([C@@H](C)CC)NC(=O)[C@H](CC(C)C)NC(=O)[C@H](Cc4c[nH]c5ccccc45)NC3=O)[C@@H](C)CC)NC(=O)[C@H](C)NC(=O)[C@H](C)NC(=O)[C@H](CCCCN)NC2=O)[C@@H](C)CC)NC(=O)[C@@H](Cc2ccccc2)NC1=O` [Example 40] ({Malonyl(2,2-Me2,histaminyl)}-[Ala(1H-tetrazol-5-yl)][dA]SFSKE[Nle][dF]DILDEKAAKDFIKWLIDEKITK-NH2; lactam 6-10, 14-18, 22-26, 27-31 (inferred); C-terminus assumed): the Emax was 105% in series [1], 89.9% in series [2] and 99.6% in series [3]. Moreover, the EC50 in series [1] is 0.00631 nM; in series [2], 0.501 nM; in series [3] it was 1.26 nM. The results for the fraction remaining at 0.5 h in series [5], in series [6] and in series [7] were 68.7%, 84.9% and 14.7%, respectively.

As for `CCCC[C@H](NC(=O)[C@H](CCC(=O)O)NC(=O)[C@H](CC(=O)O)NC(=O)[C@H](CO)NC(=O)[C@](C)(Cc1ccccc1F)NC(=O)[C@H](CO)NC(=O)CNC(=O)[C@H](CC(=O)O)NC(=O)C(C)(C)NC(=O)[C@@H](N)Cc1c[nH]cn1)C(=O)N[C@H](Cc1ccccc1)C(=O)N[C@H]1CCC(=O)NCCCC[C@@H](C(=O)N[C@H]2CCC(=O)NCCCC[C@@H](C(=O)N[C@@H](CC(=O)O)C(=O)N[C@@H](Cc3ccccc3)C(=O)N[C@H](C(=O)N[C@H]3CCC(=O)NCCCC[C@@H](C(=O)N[C@H]4CCCCNC(=O)CC[C@@H](C(N)=O)NC(=O)[C@H]([C@@H](C)O)NC(=O)[C@H]([C@@H](C)CC)NC(=O)[C@H](CCCCN)NC4=O)NC(=O)[C@H]([C@@H](C)CC)NC(=O)[C@H](CC(C)C)NC(=O)[C@H](Cc4c[nH]c5ccccc45)NC3=O)[C@@H](C)CC)NC(=O)[C@H](C)NC(=O)[C@H](C)NC2=O)NC(=O)[C@H](CC(=O)O)NC(=O)[C@H](CC(C)C)NC(=O)[C@H]([C@@H](C)CC)NC1=O` [Example 48], the Emax in series [1] is 101%; in series [2], 98.7%; in series [3] it was 103%. Besides, the EC50 in series [1] was 0.00794 nM; in series [2], 0.0158 nM; in series [3], 0.0631 nM. The fraction remaining at 0.5 h in series [5] was 80.2%; in series [6] it was 100%; in series [7] it was 100%.
